# Legend:
# activated p38 [1] = molecular target: T1, activated p38 (Homo sapiens, UniProt Q16539); experiment: Inhibition of phosphorylation of EGF receptor peptide ("kinase"); format: biochemical; settings: inhibition of phosphorylation of EGF receptor peptide by activated p38
# Summary of the method: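 Activated p38 was preincubated with inhibitor for 15 min at room temperature in 100 mM HEPES pH 7.6, 10 mM MgCl2, 25 mM β-glycerophosphate, 10% glycerol, 5% DMSO final. Reaction used 200 μM EGF receptor peptide and 100 μM ATP for 30 min at 30° C. TFA-quenched phosphopeptide was quantified by reverse-phase HPLC.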
# activated p38 [2] = molecular target: T1, activated p38; experiment: Inhibition of ATPase activity; format: biochemical; settings: ATPase activity of activated p38 (60 nM), 30° C., 30 minutes
# Procedure: This assay was carried out in the presence of 10 mM MgCl2, 25 mM β-glycerophosphate, 10% glycerol and 100 mM HEPES buffer at pH 7.6. For a typical Ki determination, the Km for ATP in the ATPase activity of activated p38 reaction was determined in the absence of inhibitor and in the presence of two concentrations of inhibitor. A stock solution was prepared containing all of the above components and activated p38 (60 nM). The stock solution was aliquotted into vials. […] The reaction was initiated by adding various concentrations of ATP and then incubated at 30° C. After 30 minutes, the reactions were quenched with 50 μl of EDTA (0.1 M, final concentration), pH 8.0. The product of p38 ATPase activity, ADP, was quantified by HPLC analysis.
# Separation of ADP from ATP was achieved on a reversed phase column (Supelcosil, LC-18, 3 μm, part no. 5–8985) using a binary solvent gradient of following composition: Solvent A—0.1 M phosphate buffer containing 8 mM tetrabutylammonium hydrogen sulfate (Sigma Chemical Co., catalogue no. T-7158), Solvent B—Solvent A with 30% methanol.
# Ki was determined from the rate data as a function of inhibitor and ATP concentrations.
# [3] = test system: IL-1 production in LPS-stimulated PBMCs; experiment: Inhibition of IL-1 production in LPS-stimulated PBMCs ("cell"); format: cell-based, human; settings: Homo sapiens, PBMC
# Summary of the method: (§1)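 Cytokine levels (IL-1β, TNF-α) in culture supernatants quantified by ELISA, with IC50 taken from dose-response curves. Fresh human PBMCs in RPMI1640 with 10% FBS received serially diluted compound plus LPS (4 ng/ml final) and were cultured 12–15 h at 37 °C, 5% CO2.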
# [4] = test system: TNF production in LPS-stimulated PBMCs; experiment: Inhibition of TNF production in LPS-stimulated PBMCs ("cell"); format: cell-based, human; settings: Homo sapiens, PBMC
# Summary of the method: as §1
# [5] = test system: IL-6 production in IL-1-stimulated PBMCs; experiment: Inhibition of IL-6 production in IL-1-stimulated PBMCs; format: cell-based; settings: Homo sapiens, PBMC; IL-1b-stimulated PBMCs, ELISA, overnight incubation
# Procedure: (§2) This assay was carried out on PBMCs exactly the same as above except that 50 μl of an IL-1b working stock solution (2 ng/ml in cell culture medium) was added to the assay instead of the (LPS) working stock solution.
# (§3) Cell culture supernatants were harvested as described above and analyzed by ELISA for levels of IL-6 (Endogen, #EH2-IL6) and IL-8 (Endogen, #EH2-IL8) according to the instructions of the manufacturer. The ELISA data were used to generate dose-response curves from which IC50 values were derived.
# [6] = test system: IL-8 production in IL-1-stimulated PBMCs; experiment: Inhibition of IL-8 production in IL-1-stimulated PBMCs; format: cell-based; settings: Homo sapiens, PBMC; IL-1b-stimulated PBMCs, ELISA, overnight incubation
# Procedure: as §2, §3
# [7] = test system: LPS induced PGHS-2 expression in PBMCs; experiment: Inhibition of LPS-induced prostaglandin endoperoxide synthase-2 (PGHS-2, or COX-2) induction in PBMCs; format: cell-based, human; settings: PBMCs, 0.2, 2.0 and 20 μM compound, LPS 4 ng/ml, overnight, anti-COX-2 immunoblot
# Procedure: Human peripheral mononuclear cells (PBMCs) were isolated from fresh human blood buffy coats by centrifugation in a Vacutainer CPT (Becton & Dickinson). We seeded 15×10^6 cells in a 6-well tissue culture dish containing RPMI 1640 supplemented with 10% fetal bovine serum, 50 U/ml penicillin, 50 μg/ml streptomycin, and 2 mM L-glutamine. Compound 6 (above) was added at 0.2, 2.0 and 20 μM final concentrations in DMSO. Then we added LPS at a final concentration of 4 ng/ml to induce enzyme expression. The final culture volume was 10 ml/well.
# After overnight incubation at 37° C., 5% CO2, the cells were harvested by scraping and subsequent centrifugation, then the supernatant was removed, and the cells were washed twice in ice-cold DPBS (Dulbecco's phosphate buffered saline, BioWhittaker). The cells were lysed on ice for 10 min in 50 μl cold lysis buffer (20 mM Tris-HCl, pH 7.2, 150 mM NaCl, 1% Triton-X-100, 1% deoxycholic acid, 0.1% SDS, 1 mM EDTA, 2% aprotinin (Sigma), 10 μg/ml pepstatin, 10 μg/ml leupeptin, 2 mM PMSF, 1 mM benzamidine, 1 mM DTT) containing 1 μl Benzonase (DNAse from Merck). The protein concentration of each sample was determined using the BCA assay (Pierce) and bovine serum albumin as a standard. Then the protein concentration of each sample was adjusted to 1 mg/ml with cold lysis buffer. […]
# [8] = test system: IL-1 production in whole blood; experiment: Inhibition of IL-1 production in LPS-stimulated whole blood ("WB"); format: cell-based, human; settings: Homo sapiens
# Summary of the method: (§4)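 Anticoagulated whole blood was preincubated with serially diluted compound, then stimulated with 4 ng/ml LPS (final) overnight (12–15 h) at 37° C/5% CO2. Supernatant IL-1b, TNF-α and IL-6 were measured by ELISA and IC50 derived from dose-response curves.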
# [9] = test system: TNF production in whole blood; experiment: Inhibition of TNF production in LPS-stimulated whole blood ("WB"); format: cell-based, human; settings: Homo sapiens
# Summary of the method: as §4
# [10] = test system: IL-6 production in whole blood; experiment: Inhibition of IL-6 production in LPS-stimulated whole blood ("WB"); format: cell-based, human; settings: Homo sapiens
# Summary of the method: as §4
# T1 sequence (Q16539 whole entry): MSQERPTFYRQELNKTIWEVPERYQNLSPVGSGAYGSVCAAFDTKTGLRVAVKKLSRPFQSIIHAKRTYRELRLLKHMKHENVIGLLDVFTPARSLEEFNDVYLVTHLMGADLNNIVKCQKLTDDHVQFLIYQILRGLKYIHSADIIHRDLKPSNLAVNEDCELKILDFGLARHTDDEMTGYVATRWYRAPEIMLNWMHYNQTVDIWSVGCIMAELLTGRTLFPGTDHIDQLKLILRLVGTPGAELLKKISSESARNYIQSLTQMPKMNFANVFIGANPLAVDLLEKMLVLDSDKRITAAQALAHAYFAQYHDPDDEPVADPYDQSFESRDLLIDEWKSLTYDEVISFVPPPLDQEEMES
SMILES,IC50 (activated p38 [1]) [µM],Ki (activated p38 [2]) [µM],IC50 [3] [µM],IC50 [4] [µM],IC50 [5] [µM],IC50 [6] [µM],LPS induced PGHS-2 expression [7],IC50 [8] [µM],IC50 [9] [µM],IC50 [10] [µM]
Cc1ccc(Sc2ccc3c(-c4ccc(Cl)cc4Cl)c(=O)ncn3n2)cc1 [Compound 5],≥ 1,2.9,,,,,,,,
O=c1ncn2nc(Sc3ccccc3)ccc2c1-c1c(Cl)cccc1Cl [Compound 6],0.1 to 1,0.4,0.1 to 0.5,≥ 0.5,0.6,0.85,inhibits LPS induced PGHS-2 expression in PBMCs,,,
O=c1ncn2nc(Sc3ccccc3)ccc2c1-c1ccc(Cl)cc1Cl [Compound 3],≥ 1,5,,,,,,,,
O=c1ncn2nc(Sc3ccccc3)ccc2c1-c1ccc(F)cc1 [Compound 2],≥ 1,15,,,,,,,,
COc1cc(Cl)c(C2=C3C=CC(Sc4ccc(F)cc4)=NN3CNC2=O)cc1O [Compound 135],≤ 0.1,,0.1 to 0.5,≥ 0.5,,,,≥ 0.5,≥ 0.5,≥ 0.5
NC(=O)C(c1cccc(-c2ccccc2CO)n1)c1c(Cl)cccc1Cl (stereo not shown) [Compound 302],≤ 0.1,,≤ 0.1,0.1 to 0.5,,,,≥ 0.5,≥ 0.5,≥ 0.5
Cc1cc(F)ccc1-c1cccc(N(C(N)=O)c2c(Cl)cccc2Cl)n1 [Compound 409],≤ 0.1,,≤ 0.1,≤ 0.1,,,,≥ 0.5,≥ 0.5,0.25 to 0.5
O=C1NCN2N=C(Sc3ccccc3CO)C=CC2=C1c1c(Cl)cccc1Cl [Compound 108],≤ 0.1,,0.1 to 0.5,≤ 0.1,,,,0.25 to 0.5,≤ 0.25,≤ 0.25

# Reference: patent publication US7205305B2, “Inhibitors of p38” (Vertex Pharmaceuticals Incorporated, priority 1996, dated 2007)
